This note sets out measurements from USH1923H, “Herbicidal (oxaalkyl) phenyl-substituted heterocycles” (FMC Corporation, priority 1998, dated 2000).

For test [1], the system named is corn. The test can be described thus: postemergence herbicidal activity on corn. Format: in vivo, Zea mays var. Pioneer 3732. Conditions: Zea mays, post-emergence, 0.3 Kg/Ha, after 12-17 days, read-out: POSTEMERGENCE HERBICIDAL ACTIVITY (% CONTROL) CRN. An outline of the steps: (§1)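 Pre- and postemergence flats are sprayed side by side on a conveyor at a coverage of 1000 L/ha, with rates such as 3000 g/ha. Phytotoxicity is expressed as percent control after 12-17 days.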

Test [2] concerns blackgrass. Briefly: preemergence herbicidal activity on blackgrass. The format is in vivo, Aloepecurus myosuroides. Conditions: Alopecurus myosuroides, pre-emergence, 0.3 Kg/Ha, after 12-17 days, read-out: PREEMERGENCE HERBICIDAL ACTIVITY (% CONTROL) ALOMY. An outline of the steps:
as §1

Test [3] deals with wheat. Briefly: postemergence herbicidal activity on wheat. The format is in vivo, Triticum aestivum var. Lew. As to conditions: Triticum aestivum, post-emergence, 0.3 Kg/Ha, after 12-17 days, read-out: POSTEMERGENCE HERBICIDAL ACTIVITY (% CONTROL) WHT. An outline of the steps: as §1
Test [4] has as its system chickweed. Briefly: postemergence herbicidal activity on chickweed. The format is in vivo. As to conditions: Stellaria media, post-emergence, 0.3 Kg/Ha, after 12-17 days, read-out: POSTEMERGENCE HERBICIDAL ACTIVITY (% CONTROL) STEME. The method in brief: as §1
The test system of test [5] is corn. Briefly: preemergence herbicidal activity on corn. Conditions: Zea mays, pre-emergence, 0.3 Kg/Ha, after 12-17 days, read-out: PREEMERGENCE HERBICIDAL ACTIVITY (% CONTROL) CRN. The format is in vivo, Zea mays var. Pioneer 3732. An outline of the steps:
as §1

For test [6], the system named is soybean. Briefly: preemergence herbicidal activity on soybean. The format is in vivo, Glycine max var. Winchester. As to conditions: Glycine max, pre-emergence, 0.3 Kg/Ha, after 12-17 days, read-out: PREEMERGENCE HERBICIDAL ACTIVITY (% CONTROL) SOY. The method in brief: as §1
The subject of test [7] is soybean. Briefly: postemergence herbicidal activity on soybean. As to conditions: Glycine max, post-emergence, 0.3 Kg/Ha, after 12-17 days, read-out: POSTEMERGENCE HERBICIDAL ACTIVITY (% CONTROL) SOY. Format: in vivo, Glycine max var. Winchester. An outline of the steps: as §1
The test system of test [8] is johnsongrass. Briefly: preemergence herbicidal activity on johnsongrass. Format: in vivo. Conditions: Sorghum halepense, pre-emergence, 0.3 Kg/Ha, after 12-17 days, read-out: PREEMERGENCE HERBICIDAL ACTIVITY (% CONTROL) SORHA. The method in brief:
as §1

For test [9], the system named is cocklebur. Briefly: preemergence herbicidal activity on cocklebur. Format: in vivo, Xanthium strumarium L. As to conditions: Xanthium strumarium, pre-emergence, 0.3 Kg/Ha, after 12-17 days, read-out: PREEMERGENCE HERBICIDAL ACTIVITY (% CONTROL) XANPE. How it is done:
The (oxaalkyl)phenyl-substituted heterocycles of this invention were tested for pre- and postemergence herbicidal activity using a variety of crops and weeds. The test plants included soybean (Glycine max var. Winchester),field corn (Zea mays var. Pioneer 3732), wheat (Triticum aestivum var. Lew), morningglory (Ipomea lacunosa or Ipomea hederacea), […] (Abutilon theophrasti), green foxtail (Setaria viridis), Johnsongrass (Sorghum halepense), blackgrass (Aloepecurus myosuroides), common chickweed (Stellaria media), and common cocklebur (Xanthium strumarium L.).
For preemergence testing, two disposable fiber flats (8 cm×15 cm×25 cm) for each rate of application of each candidate herbicide were filled to an approximate depth of 6.5 cm with steam-sterilized sandy loam soil. The soil was leveled and impressed with a template to provide five evenly spaced furrows 13 cm long and 0.5 cm deep in each flat. Seeds of soybean, wheat, corn, green foxtail, and johnsongrass were planted in the furrows of the first flat, and seeds of velvetleaf, morningglory, common chickweed, cocklebur, and blackgrass were planted in the furrows of the second flat. The five-row template was employed to firmly press the seeds into place. A topping soil of equal portions of sand and sandy loam soil was placed uniformly on top of each flat to a depth of approximately 0.5 cm. Flats for postemergence testing were prepared in the same manner except that they were planted 9-14 days prior to the preemergence flats and were placed in a greenhouse and watered, thus allowing the seeds to germinate and the foliage to develop.
In both pre- and postemergence tests, a stock solution of the candidate herbicide was prepared by dissolving 0.27 g of the compound in 20 mL of water/acetone (50/50) containing 0.5% v/v sorbitan monolaurate. For an application rate of 3000 g/ha of herbicide a 10 mL portion of the stock solution was diluted with water/acetone (50/50) to 45 mL.
The preemergence flats were initially subjected to a light water spray. The four flats were placed two by two along a conveyor belt (i.e., the two preemergence followed by the two postemergence flats). The conveyor belt fed under a spray nozzle mounted about ten inches above the postemergent foliage. The preemergent flats were elevated on the belt so that the soil surface was at the same level below the spray nozzle as the foliage canopy of the postemergent plants. The spray of herbicidal solution was commenced and once stabilized, the flats were passed under the spray at a speed to receive a coverage equivalent of 1000 L/ha. At this coverage the application rates are those shown in the above table for the individual herbicidal solutions. The preemergence flats were watered immediately thereafter, placed in the greenhouse and watered regularly at the soil surface. The postemergence flats were immediately placed in the green-house and not watered until 24 hours after treatment with the test solution. Thereafter they were regularly watered at ground level. After 12-17 days the plants were examined and the phytotoxicity data were recorded.
Phytotoxicity data were taken as percent control. Percent control was by a method similar to the 0 to 1 00 rating system disclosed in "Research Methods in Weed Science," 2nd ed., B. Truelove, Ed.; Southern Weed Science Society; Auburn University, Auburn, Ala., 1977.

Test [10] has as its system cocklebur. Briefly: postemergence herbicidal activity on cocklebur. The format is in vivo, Xanthium strumarium L. As to conditions: Xanthium strumarium, post-emergence, 0.3 Kg/Ha, after 12-17 days, read-out: POSTEMERGENCE HERBICIDAL ACTIVITY (% CONTROL) XANPE. An outline of the steps: as §1
Test [11] relates to velvetleaf. The test can be described thus: preemergence herbicidal activity on velvetleaf. The format is in vivo. As to conditions: Abutilon theophrasti, pre-emergence, 0.3 Kg/Ha, after 12-17 days, read-out: PREEMERGENCE HERBICIDAL ACTIVITY (% CONTROL) ABUTH. An outline of the steps:
as §1

The subject of test [12] is morningglory. Briefly: postemergence herbicidal activity on morningglory. Format: in vivo, Ipomea lacunosa or Ipomea hederacea. Conditions: Ipomoea, post-emergence, 0.3 Kg/Ha, after 12-17 days, read-out: POSTEMERGENCE HERBICIDAL ACTIVITY (% CONTROL) IPOSS. The method in brief: as §1
For test [13], the system named is green foxtail. Briefly: postemergence herbicidal activity on green foxtail. The format is in vivo. Conditions: Setaria viridis, post-emergence, 0.3 Kg/Ha, after 12-17 days, read-out: POSTEMERGENCE HERBICIDAL ACTIVITY (% CONTROL) SETVI. An outline of the steps:
as §1

The subject of test [14] is velvetleaf. The test can be described thus: postemergence herbicidal activity on velvetleaf. Format: in vivo. Conditions: Abutilon theophrasti, post-emergence, 0.3 Kg/Ha, after 12-17 days, read-out: POSTEMERGENCE HERBICIDAL ACTIVITY (% CONTROL) ABUTH. The method in brief: as §1
Test [15] deals with morningglory. The test can be described thus: preemergence herbicidal activity on morningglory. The format is in vivo, Ipomea lacunosa or Ipomea hederacea. Conditions: Ipomoea, pre-emergence, 0.3 Kg/Ha, after 12-17 days, read-out: PREEMERGENCE HERBICIDAL ACTIVITY (% CONTROL) IPOSS. An outline of the steps: as §1
Test [16] concerns wheat. The test can be described thus: preemergence herbicidal activity on wheat. The format is in vivo, Triticum aestivum var. Lew. As to conditions: Triticum aestivum, pre-emergence, 0.3 Kg/Ha, after 12-17 days, read-out: PREEMERGENCE HERBICIDAL ACTIVITY (% CONTROL) WHT. The method in brief:
as §1

Test [17] has as its system johnsongrass. Briefly: postemergence herbicidal activity on johnsongrass. The format is in vivo. Conditions: Sorghum halepense, post-emergence, 0.3 Kg/Ha, after 12-17 days, read-out: POSTEMERGENCE HERBICIDAL ACTIVITY (% CONTROL) SORHA. The method in brief:
as §1

For test [18], the system named is blackgrass. Briefly: postemergence herbicidal activity on blackgrass. Format: in vivo, Aloepecurus myosuroides. Conditions: Alopecurus myosuroides, post-emergence, 0.3 Kg/Ha, after 12-17 days, read-out: POSTEMERGENCE HERBICIDAL ACTIVITY (% CONTROL) ALOMY. The method in brief:
as §1

Test [19] concerns green foxtail. The test can be described thus: preemergence herbicidal activity on green foxtail. The format is in vivo. As to conditions: Setaria viridis, pre-emergence, 0.3 Kg/Ha, after 12-17 days, read-out: PREEMERGENCE HERBICIDAL ACTIVITY (% CONTROL) SETVI. An outline of the steps: as §1
The test system of test [20] is chickweed. Briefly: preemergence herbicidal activity on chickweed. The format is in vivo. As to conditions: Stellaria media, pre-emergence, 0.3 Kg/Ha, after 12-17 days, read-out: PREEMERGENCE HERBICIDAL ACTIVITY (% CONTROL) STEME. The method in brief: as §1

As to `Cn1c(C(F)(F)F)cc(=O)n(-c2cc(CC(Cl)C(C)(C)O)c(Cl)cc2F)c1=O` (centres unmarked) [Compound 1, 2-CHLORO-3-METHYL-1-[2-CHLORO-4-FLUORO-5-[1-METHYL-6-TRIFLUOROMETHYL-2,4(1H,3H)-PYRIMIDINDION-3-YL]PHENYL]BUTAN-3-OL], the activity at 300 g/ha is 100% with corn [1]; 80% with blackgrass [2]; 90% with wheat [3]; 100% in the test on chickweed [4]; 95% with corn [5]; 100% with soybean [6]. In addition, the activity at 300 g/ha in the test with soybean [7] was 100%; in the test on johnsongrass [8], 95%; in the test with cocklebur [9], 95%; in the test with cocklebur [10] it was 100%; in the test with velvetleaf [11] it was 100%; with morningglory [12], 100%. In addition, the activity at 300 g/ha came out at 100% in the test on green foxtail [13]; 100% in the test on velvetleaf [14]; 100% in the test on morningglory [15]; 80% in the test on wheat [16]; 100% in the test on johnsongrass [17]; 80% in the test on blackgrass [18]. For the same compound, the activity at 300 g/ha with green foxtail [19] and with chickweed [20] was 100% throughout.
